Laboratory results: patent US12297188B2, “Crystalline forms of (S)-1-(1-acryloylpyrrolidin-3-yl)-3-((3,5-dimethoxyphenyl)ethynyl)-5-(methylamino)-1H-pyrazole-4-carboxamide” (Beijing InnoCare Pharma Tech Co., Ltd., priority 2019, dated 2025)
≈ marks a conversion by molar mass, not a printed value. Entries after “also recorded” stand apart in the source; their conditions may differ.

Tests used:
[1] = Equilibrium solubility in water; type: physicochemical; conditions: for solubility classification: water, room temperature, 24 hours
[2] = Stability assessment on storage (XRPD and HPLC purity); type: physicochemical; conditions: for XRPD change after storage / purity change after storage / stability after storage: 25° C./60% RH and 40° C./75% RH (opened) one week
Procedure: About 10 mg Form A of Compound I was added to each 1.5-mL glass vial and stored at (i) 80° C. (closed) for one day, or (ii) 25° C./60% RH and 40° C./75% RH (opened) for one week, and then analyzed for XRPD and HPLC purity.
About 10 mg Form C of Compound I was added to each 1.5-mL glass vial and stored under 25° C./60% RH (FIG. 13) and 40° C./75% RH (opened, FIG. 14) for one week, and then analyzed for XRPD and HPLC purity.

[3] = Hygroscopicity assessment by DVS; type: physicochemical; conditions: for hygroscopicity / water uptake: DVS; for XRPD before and after DVS testing: DVS 0% RH-95% RH; for water uptake: 80% RH, 25° C.
Procedure: (§1) X-ray powder diffraction (XRPD) studies in the present disclosure were performed using a Bruker D8 ADVANCE X-ray powder diffractometer. The parameters of the XRPD method of Compound I were as follows: • X-ray reflection: Cu, Kα • Kα1 (Å): 1.540598; Kα2 (Å): 1.544426 • Kα2/Kα1 intensity ratio: 0.50 • Voltage: 40 kV • Current: 40 mA • Scanning range: from 3.0 to 40.0 degree • Differential scanning calorimetry (DSC) data in the present disclosure were acquired by a TA DSC250. The parameters of the DSC method of Compound I were as follows: • Heating rate: 10° C./min • Purging gas: nitrogen • Thermogravimetric analysis (TGA) data in the present disclosure were acquired by a TA TGA550. The parameters of the TGA method of Compound I were as follows: • Heating rate: 10° C./min • Purging gas: nitrogen • Dynamic vapor sorption (DVS) data in the present disclosure were acquired by a SMS Intrinsic DVS. The parameters of the DVS method of Compound I were as follows: • Temperature: 25° C. • Gas and flow rate: nitrogen, 200 mL/min • dm/dt: 0.002%/min • Relative humidity (RH) range: 0% RH-95% RH
About 30 mg Form A of Compound I was assessed for hygroscopicity using a DVS analyzer, and tested by XRPD before and after DVS analysis. DVS is a gravimetric technique that measures how quickly and how much of a solvent is absorbed by a sample.
About 30 mg Form C of Compound I was assessed for hygroscopicity using a DVS analyzer, and tested by XRPD before and after DVS analysis.

[4] = Thermogravimetric analysis (thermal stability); type: physicochemical
Procedure: TGA is a method of thermal analysis in which the mass of a sample is measured over time as the temperature changes. TGA evaluates the thermal stability of a material.
as §1

[5] = Interconversion of Forms A-C (heating and slurry competition); type: physicochemical; conditions: for form obtained from slurry competition: equal amounts of Form A and B, isopropyl alcohol/water, aw=0~1, room temperature
Description: The relationships among Forms A-C were investigated via heating and slurry competition experiments.

[6] = tested on: fibroblast growth factor receptor (FGFR); conditions: cited from earlier work
[7] = 25° C./60% RH for 1 week (opened)
[8] = 40° C./75% RH for 1 week (opened)

| SMILES | solubility classification [1] | Purity (%) [2, 7] [%] | Purity (%) [2, 8] [%] | Purity (%) ([2]; Day 0) | hygroscopicity [3] | XRPD before and after DVS testing [3] | water uptake [3] [%] | weight loss (TGA) ([4]; heated to 180° C.) | form obtained from slurry competition [5] | other results |
| --- | --- | --- | --- | --- | --- | --- | --- | --- | --- | --- |
| C=CC(=O)N1CC[C@H](n2nc(C#Cc3cc(OC)cc(OC)c3)c(C(N)=O)c2NC)C1 [Form A, (S)-1-(1-acryloylpyrrolidin-3-yl)-3-((3,5-dimethoxyphenyl)ethynyl)-5-(methylamino)-1H-pyrazole-4-carboxamide] | almost insoluble or insoluble | 99.78 | 99.76 | 99.75 | not hygroscopic | did not change | 0.14 | about 0.02% | gave Form A | XRPD change after storage ([2]; 80° C. (closed) one day): little or no change; purity change after storage ([2]; 80° C. (closed) one day): no purity change; stability after storage ([2]; 80° C. (closed) one day): stable; Purity (%) ([2]; 80° C. for 1 day (closed)): 99.77%; thermal stability ([4]; TGA, heated to 180° C.): thermally stable; thermodynamic stability ([5]; room temperature, versus Form B and C): better thermodynamic stability |
| C=CC(=O)N1CC[C@H](n2nc(C#Cc3cc(OC)cc(OC)c3)c(C(N)=O)c2NC)C1 [Compound I, (S)-1-(1-acryloylpyrrolidin-3-yl)-3-((3,5-dimethoxyphenyl)ethynyl)-5-(methylamino)-1H-pyrazole-4-carboxamide] | – | – | – | – | – | – | – | – | – | FGFR inhibition [6]: potent inhibitor |
| C=CC(=O)N1CC[C@H](n2nc(C#Cc3cc(OC)cc(OC)c3)c(C(N)=O)c2NC)C1 [Form C, (S)-1-(1-acryloylpyrrolidin-3-yl)-3-((3,5-dimethoxyphenyl)ethynyl)-5-(methylamino)-1H-pyrazole-4-carboxamide] | almost insoluble or insoluble | 96.91 | 96.99 | 96.83 | moderately hygroscopic; also recorded: moderately hydgroscopic | did not change | 5.44 | about 2.40% | – | solubility ([1]; after equilibrium in water at room temperature for 24 hours): 15.93 µg/mL (≈ 37.6 µM); XRPD change after storage [2]: little or no change; purity change after storage [2]: no significant purity change; stability after storage [2]: stable; form conversion on heating ([5]; heating to 145° C. and subsequently cooling to room temperature): converted to Form A |
| C=CC(=O)N1CC[C@H](n2nc(C#Cc3cc(OC)cc(OC)c3)c(C(N)=O)c2NC)C1 [Form B, (S)-1-(1-acryloylpyrrolidin-3-yl)-3-((3,5-dimethoxyphenyl)ethynyl)-5-(methylamino)-1H-pyrazole-4-carboxamide] | – | – | – | – | – | – | – | – | gave Form A | solubility thermodynamic ([1]; thermodynamic from solid, conditions not stated): 15.1 µg/mL (≈ 35.8 µM); chemical stability [2]: chemically stable; physical stability ([2]; can be converted to Form A or Form C): not physically stable; weight loss by TGA ([4]; temperature not stated): about 2.42% |
